Measurements: PubChem BioAssay AID1259407 (Chemical Carcinogenesis Research Information System (CCRIS), 2018)
Calls of active or inactive are those of the source. How the calls were made is not given here.

System: CCRIS mutagenicity, Ames/micronucleus/aberration tests
Experiment: CCRIS mutagenicity studies
[1] = Test System: AMES SALMONELLA TYPHIMURIUM, Strain/Indicator: TA98, Metabolic Activation: NONE
[2] = Test System: AMES SALMONELLA TYPHIMURIUM, Strain/Indicator: TA98, Metabolic Activation: NONE, Method: STANDARD PLATE
[3] = Test System: AMES SALMONELLA TYPHIMURIUM, Strain/Indicator: TA98, Metabolic Activation: RAT, LIVER, S-9, AROCLOR 1254
[4] = Test System: AMES SALMONELLA TYPHIMURIUM, Strain/Indicator: TA98, Metabolic Activation: RAT, LIVER, S-9, AROCLOR 1254, Method: STANDARD PLATE
[5] = Test System: AMES SALMONELLA TYPHIMURIUM, Strain/Indicator: TA100, Metabolic Activation: NONE
[6] = Test System: AMES SALMONELLA TYPHIMURIUM, Strain/Indicator: TA100, Metabolic Activation: NONE, Method: STANDARD PLATE
[7] = Test System: AMES SALMONELLA TYPHIMURIUM, Strain/Indicator: TA100, Metabolic Activation: RAT, LIVER, S-9, AROCLOR 1254
[8] = Test System: AMES SALMONELLA TYPHIMURIUM, Strain/Indicator: TA100, Metabolic Activation: RAT, LIVER, S-9, AROCLOR 1254, Method: STANDARD PLATE
[9] = Test System: AMES SALMONELLA TYPHIMURIUM, Strain/Indicator: TA1535, Metabolic Activation: NONE, Method: STANDARD PLATE

SMILES: Nc1ccccc1[N+](=O)[O-]
- mutagenic call (End Point: IN VITRO CHROMOSOMAL ABERRATIONS, Test System: CHL CELLS, Metabolic Activation: RAT, LIVER, S-9, SODIUM PHENOBARBITAL AND 5,6-BENZOFLAVONE): active; positive (structural changes)
- mutagenic call (End Point: IN VITRO MICRONUCLEUS, Test System: CHL/IU CELLS, Metabolic Activation: NONE): inactive; negative
- mutagenic call (Test System: AMES SALMONELLA TYPHIMURIUM, Strain/Indicator: TA97, Metabolic Activation: NONE): inactive; negative
- mutagenic call (Test System: AMES SALMONELLA TYPHIMURIUM, Strain/Indicator: TA97, Metabolic Activation: RAT, LIVER, S-9, AROCLOR 1254): inactive; negative
- mutagenic call (Test System: AMES SALMONELLA TYPHIMURIUM, Strain/Indicator: TA98, Metabolic Activation: HAMSTER, LIVER, S-9, AROCLOR 1254, FLAVIN MONONUCLEOTIDE, Method: PREINCUBATION): active; positive
- mutagenic call (Test System: AMES SALMONELLA TYPHIMURIUM, Strain/Indicator: TA98, Metabolic Activation: HAMSTER, LIVER, S-9, AROCLOR 1254, Method: PREINCUBATION): inactive; negative
- mutagenic call [1]: inactive; negative
- mutagenic call (Test System: AMES SALMONELLA TYPHIMURIUM, Strain/Indicator: TA98, Metabolic Activation: NONE, Method: PREINCUBATION): inactive; negative
- mutagenic call [2]: inactive; negative
- mutagenic call [3]: inactive; negative
- mutagenic call (Test System: AMES SALMONELLA TYPHIMURIUM, Strain/Indicator: TA98, Metabolic Activation: RAT, LIVER, S-9, AROCLOR 1254, FLAVIN MONONUCLEOTIDE, Method: PREINCUBATION): inactive; negative
- mutagenic call [4]: inactive; negative
- mutagenic call (Test System: AMES SALMONELLA TYPHIMURIUM, Strain/Indicator: TA98, Metabolic Activation: RAT, LIVER, S-9, KANECHLOR 500, Method: PREINCUBATION): inactive; negative
- mutagenic call (Test System: AMES SALMONELLA TYPHIMURIUM, Strain/Indicator: TA98, Method: PREINCUBATION): inactive; negative
- mutagenic call [5]: inactive; negative
- mutagenic call (Test System: AMES SALMONELLA TYPHIMURIUM, Strain/Indicator: TA100, Metabolic Activation: NONE, Method: PREINCUBATION): inactive; negative
- mutagenic call [6]: inactive; negative
- mutagenic call [7]: inactive; negative
- mutagenic call [8]: inactive; negative
- mutagenic call (Test System: AMES SALMONELLA TYPHIMURIUM, Strain/Indicator: TA100, Metabolic Activation: RAT, LIVER, S-9, KANECHLOR 500, Method: PREINCUBATION): inactive; negative
- mutagenic call (Test System: AMES SALMONELLA TYPHIMURIUM, Strain/Indicator: TA100, Method: PREINCUBATION): inactive; negative
- mutagenic call (Test System: AMES SALMONELLA TYPHIMURIUM, Strain/Indicator: TA102, Metabolic Activation: NONE): inactive; negative
- mutagenic call (Test System: AMES SALMONELLA TYPHIMURIUM, Strain/Indicator: TA102, Metabolic Activation: RAT, LIVER, S-9, AROCLOR 1254): inactive; negative
- mutagenic call (Test System: AMES SALMONELLA TYPHIMURIUM, Strain/Indicator: TA1535, Metabolic Activation: NONE, Method: PREINCUBATION): inactive; negative
- mutagenic call [9]: inactive; negative
- mutagenic call (Test System: AMES SALMONELLA TYPHIMURIUM, Strain/Indicator: TA1535, Metabolic Activation: RAT, LIVER, S-9, AROCLOR 1254, Method: STANDARD PLATE): inactive; negative
- mutagenic call (Test System: AMES SALMONELLA TYPHIMURIUM, Strain/Indicator: TA1535, Method: PREINCUBATION): inactive; negative
- mutagenic call (Test System: AMES SALMONELLA TYPHIMURIUM, Strain/Indicator: TA1537, Metabolic Activation: NONE, Method: PREINCUBATION): inactive; negative
- mutagenic call (Test System: AMES SALMONELLA TYPHIMURIUM, Strain/Indicator: TA1537, Metabolic Activation: NONE, Method: STANDARD PLATE): inactive; negative
- mutagenic call (Test System: AMES SALMONELLA TYPHIMURIUM, Strain/Indicator: TA1537, Metabolic Activation: RAT, LIVER, S-9, AROCLOR 1254, Method: STANDARD PLATE): inactive; negative
- mutagenic call (Test System: AMES SALMONELLA TYPHIMURIUM, Strain/Indicator: TA1537, Method: PREINCUBATION): inactive; negative
- mutagenic call (Test System: AMES SALMONELLA TYPHIMURIUM, Strain/Indicator: TA1538, Metabolic Activation: NONE, Method: PREINCUBATION): inactive; negative
- mutagenic call (Test System: AMES SALMONELLA TYPHIMURIUM, Strain/Indicator: TA1538, Metabolic Activation: NONE, Method: STANDARD PLATE): inactive; negative
- mutagenic call (Test System: AMES SALMONELLA TYPHIMURIUM, Strain/Indicator: TA1538, Metabolic Activation: RAT, LIVER, S-9, AROCLOR 1254, Method: STANDARD PLATE): inactive; negative
- mutagenic call (Test System: AMES SALMONELLA TYPHIMURIUM, Strain/Indicator: TA1538, Method: PREINCUBATION): inactive; negative
- mutagenic call (Test System: UDS RODENT HEPATOCYTES, Strain/Indicator: THY INCORP (NON-S-PHASE), Metabolic Activation: NONE, Method: AUTORADIOGRAPHY): inactive; negative

SMILES: O=[N+]([O-])c1c2c3c(ccc4cccc(c43)CC2)c2ccccc12
- mutagenic call [2]: active; positive
- mutagenic call [6]: inactive; negative

SMILES: CCCC(=O)Nc1ccc(OCC(O)CNC(C)C)c(C(C)=O)c1 (stereo not given)
- mutagenic call [1]: inactive; negative
- mutagenic call [2]: inactive; negative
- mutagenic call [3]: inactive; negative
- mutagenic call [4]: inactive; negative
- mutagenic call [5]: inactive; negative
- mutagenic call [6]: inactive; negative
- mutagenic call [7]: inactive; negative
- mutagenic call [8]: inactive; negative
- mutagenic call (Test System: AMES SALMONELLA TYPHIMURIUM, Strain/Indicator: TA1535, Metabolic Activation: NONE): inactive; negative
- mutagenic call (Test System: AMES SALMONELLA TYPHIMURIUM, Strain/Indicator: TA1535, Metabolic Activation: RAT, LIVER, S-9, AROCLOR 1254): inactive; negative
- mutagenic call (Test System: AMES SALMONELLA TYPHIMURIUM, Strain/Indicator: TA1537, Metabolic Activation: NONE): inactive; negative
- mutagenic call (Test System: AMES SALMONELLA TYPHIMURIUM, Strain/Indicator: TA1537, Metabolic Activation: RAT, LIVER, S-9, AROCLOR 1254): inactive; negative

SMILES: COc1ccc(CN(C)N=O)cc1
- mutagenic call (Test System: AMES SALMONELLA TYPHIMURIUM, Strain/Indicator: TA1535, Metabolic Activation: HAMSTER, LIVER, S-9, AROCLOR 1254, Method: STANDARD PLATE): inactive; negative
- mutagenic call [9]: inactive; negative

SMILES: Fc1ccc2cc3c(cc2c1)-c1cccc2cccc-3c12
- mutagenic call [8]: active; positive

SMILES: Cc1c(N)nc([C@H](CC(N)=O)NC[C@H](N)C(N)=O)nc1C(=O)N[C@H](C(=O)N[C@H](C)[C@@H](O)[C@H](C)C(=O)N[C@H](C(=O)NCCc1nc(-c2nc(C(=O)NCCCN(C)CCCN(Cc3ccc(OCc4ccccc4)c(OCc4ccccc4)c3)Cc3ccc(OCc4ccccc4)c(OCc4ccccc4)c3)cs2)cs1)[C@@H](C)O)[C@@H](O[C@@H]1O[C@@H](CO)[C@@H](O)[C@H](O)[C@@H]1O[C@H]1O[C@H](CO)[C@@H](O)[C@H](OC(N)=O)[C@@H]1O)c1cnc[nH]1
- mutagenic call (Test System: AMES SALMONELLA TYPHIMURIUM, Strain/Indicator: TA94, Metabolic Activation: NONE, Method: PREINCUBATION): inactive; negative
- mutagenic call (Test System: AMES SALMONELLA TYPHIMURIUM, Strain/Indicator: TA102, Metabolic Activation: NONE, Method: PREINCUBATION): active; positive
